# From ChEMBL document CHEMBL1201862, “PubChem BioAssay data set” (2004)
#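 Results reflect a 48-hour exposure of cells in 96-well plates to compound at five concentrations. Abbreviation: GI50, concentration required for 50% inhibition of growth.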 Calls of active or inactive are those of the source. No stated cut-off is given here; in the data, active = GI50 up to about 1.1 µM and inactive = higher.
# Experiments:
# Assay in all cases: NCI-60 cell line screen, 48 h
# CAKI-1 = tested on: CAKI-1
# SN12C = tested on: SN12C
# UACC-257 = tested on: UACC-257
# SK-MEL-2 = tested on: SK-MEL-2
# RPMI-8226 = tested on: RPMI-8226
# MCF7 = tested on: MCF7
# HCT-15 = tested on: HCT-15
# MOLT-4 = tested on: MOLT-4
# OVCAR-5 = tested on: OVCAR-5
# COLO 205 = tested on: COLO 205
# HCC 2998 = tested on: HCC 2998
# SF-539 = tested on: SF-539
# SK-MEL-28 = tested on: SK-MEL-28
# HT-29 = tested on: HT-29
# DU-145 = tested on: DU-145
# UO-31 = tested on: UO-31
# LOX IMVI = tested on: LOX IMVI
# T47D = tested on: T47D
# OVCAR-4 = tested on: OVCAR-4
# NCI/ADR-RES = tested on: NCI/ADR-RES
SMILES,GI50 (CAKI-1),GI50 (SN12C),GI50 (UACC-257),GI50 (SK-MEL-2),GI50 (RPMI-8226),GI50 (MCF7),GI50 (HCT-15),GI50 (MOLT-4),GI50 (OVCAR-5),GI50 (COLO 205),GI50 (HCC 2998),GI50 (SF-539),GI50 (SK-MEL-28),GI50 (HT-29),GI50 (DU-145),GI50 (UO-31),GI50 (LOX IMVI),GI50 (T47D),GI50 (OVCAR-4),GI50 (NCI/ADR-RES)
CC1=C(C(=O)N(C)c2ccc(Cl)c(C(=O)OC(C)C)c2)SCCO1,> 100 µM (inactive),> 100 µM (inactive),43.3 µM (inactive),> 100 µM (inactive),26.6 µM (inactive),66.5 µM (inactive),74 µM,38.5 µM (inactive),> 100 µM (inactive),70.8 µM (inactive),> 100 µM (inactive),> 100 µM (inactive),> 100 µM (inactive),46.7 µM (inactive),> 100 µM (inactive),27.2 µM (inactive),> 100 µM (inactive),31.2 µM (inactive),42.4 µM (inactive),26.7 µM (inactive)
O=[N+]([O-])CC(SCc1ccccc1)c1ccc2c(c1)OCO2 (configuration not stated),14.2 µM (inactive),11.7 µM (inactive),6.79 µM (inactive),21.1 µM (inactive),1.57 µM (inactive),3.04 µM (inactive),3.84 µM,3.37 µM (inactive),15.2 µM (inactive),8.24 µM (inactive),5.57 µM (inactive),4.01 µM (inactive),5.82 µM (inactive),2.61 µM (inactive),14.5 µM (inactive),8.26 µM (inactive),1.56 µM (inactive),19.6 µM (inactive),13.2 µM (inactive),9.57 µM (inactive)
O=[N+]([O-])C(/C=C(\Cl)[N+](=O)[O-])=C(N1CCCCC1)N1CCCCC1,> 100 µM (inactive),45 µM (inactive),25.3 µM (inactive),30 µM (inactive),30.8 µM (inactive),0.631 µM (active),25.3 µM,30.7 µM (inactive),95.5 µM (inactive),21.5 µM (inactive),44.7 µM (inactive),25.9 µM (inactive),70.8 µM (inactive),31.3 µM (inactive),62.5 µM (inactive),21.3 µM (inactive),55.7 µM (inactive),53 µM (inactive),23.9 µM (inactive),26.9 µM (inactive)
c1ccc2c(c1)nc1n2CCSC1,> 100 µM (inactive),> 100 µM (inactive),> 100 µM (inactive),> 100 µM (inactive),> 100 µM (inactive),> 100 µM (inactive),> 100 µM,> 100 µM (inactive),> 100 µM (inactive),> 100 µM (inactive),> 100 µM (inactive),> 100 µM (inactive),> 100 µM (inactive),> 100 µM (inactive),> 100 µM (inactive),> 100 µM (inactive),> 100 µM (inactive),> 100 µM (inactive),> 100 µM (inactive),> 100 µM (inactive)
OCC(S)CS.[Bi] (configuration not stated),11.8 µM (inactive),15.8 µM (inactive),13 µM (inactive),12.6 µM (inactive),2.93 µM (inactive),18.5 µM (inactive),15 µM,,19.9 µM (inactive),14.5 µM (inactive),13.6 µM (inactive),15.4 µM (inactive),12 µM (inactive),19 µM (inactive),18.3 µM (inactive),16.7 µM (inactive),20.7 µM (inactive),8.89 µM (inactive),23.6 µM (inactive),36.1 µM (inactive)
Brc1c2c(c(Br)c3nsnc13)N=S=N2,19.1 µM (inactive),17.4 µM (inactive),42.4 µM (inactive),20 µM (inactive),22 µM (inactive),24.2 µM (inactive),24.6 µM,17.9 µM (inactive),27.6 µM (inactive),41.5 µM (inactive),> 58.6 µM (inactive),22.7 µM (inactive),37.5 µM (inactive),34.4 µM (inactive),> 87.1 µM (inactive),22.8 µM (inactive),3.84 µM (inactive),27.7 µM (inactive),23.1 µM (inactive),26.7 µM (inactive)
O=C(Cc1ccc(Cl)c(Cl)c1)NCCCN1CCN(CCCN2CCCCC2)CC1,20.4 µM (inactive),18.8 µM (inactive),5.26 µM (inactive),6.59 µM (inactive),2.71 µM (inactive),18.5 µM (inactive),20.7 µM,10.9 µM (inactive),20 µM (inactive),13.2 µM (inactive),2.89 µM (inactive),14.2 µM (inactive),2.56 µM (inactive),10.8 µM (inactive),40.5 µM (inactive),1.84 µM (inactive),14.1 µM (inactive),20.3 µM (inactive),37.8 µM (inactive),> 100 µM (inactive)
CCOC(=O)n1cncc1CC(NC(=O)Cc1c(C(=O)C=C(C)C)[nH]c2ccccc12)C(=O)OC (configuration not stated),17.9 µM (inactive),16.3 µM (inactive),13.3 µM (inactive),17 µM (inactive),32.5 µM (inactive),24.7 µM (inactive),19.1 µM,20 µM (inactive),15.5 µM (inactive),18.1 µM (inactive),13.9 µM (inactive),19.5 µM (inactive),16 µM (inactive),22.3 µM (inactive),18.5 µM (inactive),15.7 µM (inactive),15.5 µM (inactive),2.8 µM (inactive),18.5 µM (inactive),33.4 µM (inactive)
C=CCCCCNC(=O)C[C@@H]1C2=C(CC[C@H]1O[Si](C)(C)C(C)(C)C)N1C(=O)CCC/C=C\C1C2 (some centres not stated),12.4 µM (inactive),15.4 µM (inactive),13.1 µM (inactive),13.2 µM (inactive),5.71 µM (inactive),12.2 µM (inactive),14 µM,5.89 µM (inactive),16 µM (inactive),13.6 µM (inactive),10.4 µM (inactive),17.5 µM (inactive),15 µM (inactive),12.3 µM (inactive),15 µM (inactive),14.2 µM (inactive),17 µM (inactive),12.7 µM (inactive),12.2 µM (inactive),12.2 µM (inactive)
COC(=O)[C@@H]1CN(C(=O)c2ccccc2)C(=O)N1C(=O)OCc1ccccc1,> 100 µM (inactive),> 100 µM (inactive),> 100 µM (inactive),> 100 µM (inactive),> 100 µM (inactive),> 100 µM (inactive),> 100 µM,> 100 µM (inactive),> 100 µM (inactive),> 100 µM (inactive),> 100 µM (inactive),> 100 µM (inactive),> 100 µM (inactive),> 100 µM (inactive),> 100 µM (inactive),> 100 µM (inactive),> 100 µM (inactive),> 100 µM (inactive),> 100 µM (inactive),> 100 µM (inactive)
CCCCNC(=S)c1ccc(OC(=O)Nc2ccc(Cl)cc2)cc1,18.5 µM (inactive),,77.4 µM (inactive),19.3 µM (inactive),65.2 µM (inactive),41.7 µM (inactive),12.2 µM,11.4 µM (inactive),40.3 µM (inactive),15.9 µM (inactive),> 100 µM (inactive),> 100 µM (inactive),22.3 µM (inactive),8.18 µM (inactive),> 100 µM (inactive),19.7 µM (inactive),0.573 µM (active),58.6 µM (inactive),8.43 µM (inactive),12.4 µM (inactive)
Cc1ccc(-c2c(-c3ccccc3)[nH]c(C)c2C(=O)ONC(=O)c2ccccc2)cc1,2.19 µM (inactive),2.53 µM (inactive),13.7 µM (inactive),3.7 µM (inactive),3.46 µM (inactive),4.84 µM (inactive),9.25 µM,2.74 µM (inactive),8.65 µM (inactive),11.7 µM (inactive),15.5 µM (inactive),2.97 µM (inactive),12.1 µM (inactive),7.83 µM (inactive),1.82 µM (inactive),0.303 µM (active),1.75 µM (inactive),4.6 µM (inactive),2.72 µM (inactive),4.65 µM (inactive)
CC(=O)OCC1OC(N2C(S)=C(C#N)C(c3ccco3)C(C(C)=O)=C2c2ccccc2)C(OC(C)=O)C(OC(C)=O)C1OC(C)=O (configuration not stated),40.9 µM (inactive),29.4 µM (inactive),> 100 µM (inactive),> 100 µM (inactive),95.9 µM (inactive),> 100 µM (inactive),> 100 µM,> 100 µM (inactive),62.4 µM (inactive),64.9 µM (inactive),> 100 µM (inactive),78.5 µM (inactive),30.1 µM (inactive),> 100 µM (inactive),79.8 µM (inactive),29.3 µM (inactive),32.1 µM (inactive),> 100 µM (inactive),13.4 µM (inactive),> 100 µM (inactive)
O=[N+]([O-])c1ccc(-c2nc3ccccc3o2)cc1,> 100 µM (inactive),> 100 µM (inactive),> 100 µM (inactive),> 100 µM (inactive),> 100 µM (inactive),> 100 µM (inactive),> 100 µM,> 100 µM (inactive),> 100 µM (inactive),> 100 µM (inactive),> 100 µM (inactive),> 100 µM (inactive),> 100 µM (inactive),,> 100 µM (inactive),> 100 µM (inactive),> 100 µM (inactive),> 100 µM (inactive),> 100 µM (inactive),> 100 µM (inactive)
